Results from ChEMBL document CHEMBL1201862, “PubChem BioAssay data set” (2004).
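Five concentrations, 48 hours, 96-well plates. At the GI50, growth is halved.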 The source made the active and inactive calls. Cut-off read from the data, not from the text of the source: active = GI50 up to about 1.1 µM and inactive = higher.

Legend:
Test in all cases: NCI anticancer screen, dose series, 48 h
[1] = test system: 786-0
[2] = test system: SNB-19
[3] = test system: NCI-H23
[4] = test system: UACC-62
[5] = test system: SK-MEL-5
[6] = test system: SF-268
[7] = test system: CAKI-1
[8] = test system: SF-539
[9] = test system: SF-295
[10] = test system: KM12
[11] = test system: M14
[12] = test system: OVCAR-4
[13] = test system: HCT-116
[14] = test system: COLO 205
[15] = test system: A549
[16] = test system: OVCAR-3
[17] = test system: UO-31
[18] = test system: ACHN
[19] = test system: HL-60
[20] = test system: RPMI-8226

Measured: GI50

COC(=O)c1ccccc1CC1Cc2cccc(C)c2C1=O (stereo not given)
inactive: [1] 47.5 µM | [2] 52.5 µM | [3] 57.5 µM | [4] 30.5 µM | [5] 21.4 µM | [6] 37.8 µM | [7] 80.2 µM | [8] 89.7 µM | [9] 38.9 µM | [10] 27 µM | [11] 34.8 µM | [12] 27.7 µM | [13] 23.8 µM | [14] 20.3 µM | [15] 51.8 µM | [16] 33.7 µM | [17] 22.7 µM | [18] 34.8 µM

CCOC(=O)N1CCN(C=S)CC1
inactive: [1] > 100 µM | [2] > 100 µM | [3] > 100 µM | [4] > 100 µM | [5] > 100 µM | [6] > 100 µM | [19] > 100 µM | [8] > 100 µM | [10] > 100 µM | [11] > 100 µM | [13] > 100 µM | [14] > 100 µM | [15] > 100 µM | [16] > 100 µM | [17] > 100 µM | [18] > 100 µM

CCCC1NC(=O)C(CC(C)C)NC(=O)c2cccc(n2)C(=O)NC(CC(C)C)C(=O)NC(CCC)C(=O)NC(C(=O)OC)CCCCNC1=O (stereo not given)
inactive: [1] > 100 µM | [2] 53.5 µM | [3] 47.9 µM | [4] 21.2 µM | [5] > 100 µM | [6] 28.2 µM | [7] > 100 µM | [20] 14.3 µM | [8] 22 µM | [9] 51.1 µM | [10] 27.3 µM | [11] 91 µM | [12] 38.8 µM | [13] 34 µM | [14] 40.6 µM | [15] > 100 µM | [16] 41.7 µM | [17] > 100 µM

CCOC(=O)NC(=O)c1cn(CCN2CCN(c3ncnc4[nH]cnc34)CC2)c(=O)[nH]c1=O
inactive: [1] > 100 µM | [2] > 100 µM | [3] > 100 µM | [4] > 100 µM | [5] > 100 µM | [6] > 100 µM | [19] > 100 µM | [20] > 100 µM | [8] > 100 µM | [9] > 100 µM | [10] > 100 µM | [11] > 100 µM | [13] > 100 µM | [14] > 100 µM | [15] > 100 µM | [16] > 100 µM | [17] > 100 µM | [18] > 100 µM
